Results from article PMC4208661, “SGLT2 inhibitors act from the extracellular surface of the cell membrane” (Physiological Reports, 2014).
Read-outs that look alike come from different tables or passages of the source.

What was measured:
hSGLT1 [1] = target: T1, hSGLT1 (Homo sapiens, UniProt P13866); assay: Whole-cell patch clamp, glucose-induced current, extracellular inhibitor, HEK-293T cells expressing hSGLT1
T1 sequence (P13866 1-664): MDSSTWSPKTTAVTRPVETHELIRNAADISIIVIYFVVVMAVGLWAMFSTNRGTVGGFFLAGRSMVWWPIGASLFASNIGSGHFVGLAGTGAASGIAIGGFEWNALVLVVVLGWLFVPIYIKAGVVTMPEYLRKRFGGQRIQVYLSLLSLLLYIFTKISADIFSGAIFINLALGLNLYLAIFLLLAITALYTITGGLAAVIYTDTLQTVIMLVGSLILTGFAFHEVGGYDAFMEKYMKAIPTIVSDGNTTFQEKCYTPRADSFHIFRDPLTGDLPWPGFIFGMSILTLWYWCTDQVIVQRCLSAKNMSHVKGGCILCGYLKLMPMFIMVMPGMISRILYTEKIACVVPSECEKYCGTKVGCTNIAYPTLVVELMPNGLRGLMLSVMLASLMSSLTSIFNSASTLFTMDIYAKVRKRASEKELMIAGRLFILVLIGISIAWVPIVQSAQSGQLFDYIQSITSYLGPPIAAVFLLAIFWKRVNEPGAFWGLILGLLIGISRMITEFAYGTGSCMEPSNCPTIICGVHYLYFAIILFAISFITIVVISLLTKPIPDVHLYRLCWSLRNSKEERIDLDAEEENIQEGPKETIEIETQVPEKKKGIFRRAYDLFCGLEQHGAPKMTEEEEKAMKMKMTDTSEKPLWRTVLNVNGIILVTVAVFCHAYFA
Protocol: In brief, 2 days after transfection cells were plated on 12‐mm poly‐L‐lysine‐coated glass coverslips and selected on the basis of fluorescence intensity using a Nikon diaphot epifluorescence microscope (Nikon, Tokyo, Japan). During the experiment cells were kept at the holding potential Vh = −60 mV. […] Currents were filtered at 2 kHz and digitized at 1 kHz.
Glucose currents (IGlu) were obtained by subtracting the baseline current recorded in Na^+ buffer to the total current measured in Na^+ buffer + glucose: [drawing 1]
The inhibition constant (IC50) was determined by measuring the sugar‐dependent steady‐state current or radiotracer uptake as a function of external inhibitor concentration.
The D‐glucose‐coupled current recovery follows an exponential time course with time constant 1/koff and half‐time for recovery (t1/2,off) related to the off rate: [drawing 3]
The ON rate (kon) is calculated from the empirically measured Ki values and koff values: [drawing 4]
To calculate the dissociation constant (koff) we measured the recovery time of SGLT glucose‐induced current when the inhibitor is rapidly removed from the extracellular solution.

[2] = set-up: method as in Koga et al. [2013]; settings: ref Koga et al. [2013]; cited from earlier work
hSGLT2 [3] = target: T2, hSGLT2 (Homo sapiens, UniProt P31639); assay: Whole-cell patch clamp, inward glucose current with inhibitor in the intracellular (pipette) solution, hSGLT2; assay type: cell-based; set-up: transfected with 1 μg of the vector containing the hSGLT2 or hSGLT1 coding region; expressed in transfected cells; host or cells: HEK-293T
T2 sequence (P31639 1-672): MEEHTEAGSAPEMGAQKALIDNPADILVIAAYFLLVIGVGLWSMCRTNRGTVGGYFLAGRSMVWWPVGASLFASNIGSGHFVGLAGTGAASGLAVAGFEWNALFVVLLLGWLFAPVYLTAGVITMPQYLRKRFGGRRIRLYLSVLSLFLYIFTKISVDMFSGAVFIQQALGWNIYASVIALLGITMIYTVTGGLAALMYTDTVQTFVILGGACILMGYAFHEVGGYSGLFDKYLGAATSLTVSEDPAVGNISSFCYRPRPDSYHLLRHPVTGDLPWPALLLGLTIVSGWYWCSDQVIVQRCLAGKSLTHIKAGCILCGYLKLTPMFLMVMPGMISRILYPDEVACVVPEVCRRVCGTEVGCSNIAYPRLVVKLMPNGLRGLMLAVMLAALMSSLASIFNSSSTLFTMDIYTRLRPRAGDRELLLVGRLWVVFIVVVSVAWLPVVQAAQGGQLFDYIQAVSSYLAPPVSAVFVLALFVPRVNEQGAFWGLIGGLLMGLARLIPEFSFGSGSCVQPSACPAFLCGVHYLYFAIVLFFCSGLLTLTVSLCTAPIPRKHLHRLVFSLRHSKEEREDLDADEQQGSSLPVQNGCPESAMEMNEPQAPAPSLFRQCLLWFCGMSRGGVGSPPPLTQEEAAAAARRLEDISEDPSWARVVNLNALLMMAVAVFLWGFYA
Excerpt: (§1) The intracellular NaCl concentration was maintained at either 5 or 150 mmol/L using CsCl to replace NaCl (Fig. 5A and B).

hSGLT2 [4] = target: T2, hSGLT2; assay: [14C]-αMDG uptake in HEK-293T cells expressing hSGLT2; assay type: cell-based; set-up: transfected with 1 μg of the vector containing the hSGLT2 or hSGLT1 coding region; expressed in transfected cells; host or cells: HEK-293T
Protocol: Uptake was normalized to total cellular protein.
We decided to use two different approaches due to the fact that hSGLT2 has low expression, yielding small glucose‐induced currents. For radiotracer uptake experiments, tracer entry in the cell is measured over the period of 30 min leading to a higher sensitivity of the method.

hSGLT1 [5] = target: T1, hSGLT1; settings: 300 nmol/L TA-3404, 50 μmol/L α-MDG, HEK-293T, 37°C
Protocol: In brief, cells were incubated for 30 min in 50 μmol/L [^14C]‐α‐Methyl‐D‐glucopyranoside (GE HealthCare Life Sciences, Piscataway, NJ), a specific substrate for SGLTs, and washed in cold Choline buffer three times. The cells were solubilized and a sample was assayed using scintillation counting. Uptake was normalized to total cellular protein. For each tested condition, the sample size was n = 3–4 wells and each experiment was repeated at least twice.

hSGLT2 [6] = target: T2, hSGLT2; assay: Whole-cell patch clamp, glucose-induced current, extracellular inhibitor, HEK-293T cells expressing hSGLT2; assay type: cell-based; set-up: transfected with 1 μg of the vector containing the hSGLT2 or hSGLT1 coding region; expressed in transfected cells; host or cells: HEK-293T
hSGLT1 [7] = target: T1, hSGLT1; assay: Whole-cell patch clamp, inward glucose current with inhibitor in the intracellular (pipette) solution, hSGLT1; assay type: cell-based; set-up: transfected with 1 μg of the vector containing the hSGLT2 or hSGLT1 coding region; expressed in transfected cells; host or cells: HEK-293T
Excerpt: as §1

hSGLT2 [8] = target: T2, hSGLT2; set-up: method as in Koga et al. [2013]; settings: ref Koga et al. [2013], cited from earlier work
hSGLT2 [9] = target: T2, hSGLT2; set-up: transfected with 1 μg of the vector containing the hSGLT2 or hSGLT1 coding region; expressed in transfected cells; host or cells: HEK-293T; settings: ref Hummel et al. [2011], cited from earlier work
[10] = test system: renal glucose reabsorption; settings: cited from earlier work
[11] = after 24 h, single clinical oral dose; ref Hummel et al. [2012]; cited from earlier work
hSGLT2 over hSGLT1 = test system: hSGLT2 over hSGLT1; set-up: method as in Nomura et al. [2010]; settings: from IC50; ref Nomura et al. [2010]; cited from earlier work
[12] = physiological conditions, HEK293T cells
[13] = ref Chasis et al. [1933], Silverman [1974]

With `OC[C@H]1O[C@@H](c2ccc(Cl)c(Cc3ccc(-c4ccc(F)nc4)s3)c2)[C@H](O)[C@@H](O)[C@@H]1O` [TA‐3404] the IC50 (hSGLT1 [1]) was 300 ± 61 nM, the Ki (hSGLT1 [1]) was 150 nM and the “half-time of recovery of hSGLT1 current (t1/2,off)” value (hSGLT1 [1]; after removal of inhibitor, n = 5) was 5.4 ± 0.4 s. For the same compound, the “koff, hSGLT1” value (hSGLT1 [1]; from half-time of current recovery) was 0.2 per sec, the pharmacokinetic profiles [2] was “favorable pharmacokinetic profiles” and the urine glucose excretion [2] was “increased urine glucose excretion”. The “inhibition of inward hSGLT2 Na+/glucose current” value (hSGLT2 [3]; 200 nmol/L TA-3404 intracellular, 5 mmol/L intracellular Na+, 100 mmol/L glucose, -60 mV) was “did not inhibit”, the “inhibition of inward hSGLT2 glucose current” value (hSGLT2 [3]; 200 nmol/L TA-3404 intracellular, 150 mmol/L intracellular Na+) was “no significant inhibition” and the “intracellular affinity of hSGLT2 lower than the extracellular affinity” value (hSGLT2 [3]; intracellular versus extracellular) was “at least 100”. The “inhibition of SGLT2 from the intracellular compartment” value (hSGLT2 [3]; low (5 mmol/L) and high (150 mmol/L) intracellular NaCl) was “ineffective”, the “inhibition of Na+/glucose currents generated by hSGLT2, inhibitor in the cytoplasm” value (hSGLT2 [3]; [12]) was “does not inhibit” and the “inhibition of hSGLT2 sugar uptake” value (hSGLT2 [4]; 2 nmol/L TA-3404, 50 μmol/L α-MDG, HEK-293T, 37°C) was 50%. The IC50 (hSGLT2 [4]; 50 μmol/L [14C]-αMDG, 1-500 nmol/L extracellular TA-3404, HEK-293T, read-out: IC50, [14C]-αMDG uptake, hSGLT2) was 3.9 ± 2.2 nM, the “affinity of hSGLT2 higher than for hSGLT1” value (hSGLT2 [4]; HEK-293T) was “about 75 fold” and the IC50 (hSGLT2 [4]; as stated in the abstract, read-out: IC50, extracellular inhibition of glucose inward SGLT2 transport) was 2 nM. The Ki (hSGLT2 [4]; from IC50 (IC50 is twice the Ki), extracellular) was roughly 2 nM, the “inhibition of hSGLT1 uptake” value (hSGLT1 [5]) was 10% and the “inhibition of glucose-induced inward current, hSGLT2” value (hSGLT2 [6]; 300 nmol/L extracellular TA-3404, 100 mmol/L glucose, -60 mV, 37°C) was “completely inhibited”. The “half-time of recovery of hSGLT2 current (t1/2,off)” value (hSGLT2 [6]; after removal of inhibitor, reversible ~50% component, n = 3) was 17 ± 0.5 s, the “kon, hSGLT2” value (hSGLT2 [6]; calculated from Ki and koff) was 1.4 × 10^6 mol/L per sec and the “recovery of hSGLT2 current after removing the inhibitor” value (hSGLT2 [6]; washout, no further recovery over 5 min) was ~ 50%. For the same compound, the “effect on inward hSGLT1 Na+/glucose current” value (hSGLT1 [7]; 200 nmol/L TA-3404 intracellular, 5 mmol/L NaCl in the pipette, 10 mmol/L glucose) was “no effect”, the “effect on hSGLT1 glucose-induced current” value (hSGLT1 [7]; 200 nmol/L TA-3404 intracellular, 150 mmol/L Na+ in the pipette) was “did not detect any significant effect” and the “inhibition of Na+/glucose currents generated by hSGLT1, inhibitor in the cytoplasm” value (hSGLT1 [7]; [12]) was “does not inhibit”. For the same compound, the IC50 (hSGLT2 [8]; CHOK1 cells overexpressing hSGLT2, read-out: IC50, Na+-dependent 14C-α-MDG uptake, SGLT2) was 2 nM and the “selectivity for SGLT2 vs. SGLT1” value (hSGLT2 [8]; CHOK1 cells, ratio of IC50) was ~ 350 fold.
For `O=C(CCc1ccc(O)cc1)c1c(O)cc(O)cc1O[C@@H]1O[C@H](CO)[C@@H](O)[C@H](O)[C@H]1O` [phlorizin], the “effect on sugar uptake by hSGLT2” value (hSGLT2 [4]; 100 μmol/L phlorizin, 50 μmol/L α-MDG, HEK-293T) is given as “to the level observed in untransfected cells”, the “Off rate, hSGLT2” value (hSGLT2 [9]; phlorizin) is given as 0.3 per sec and the “half-time of recovery of hSGLT2 current (t1/2,off)” value (hSGLT2 [9]) is given as 24 s. The glomerular filtration [10, 13] was “freely filtered”, the glucose reabsorption [10, 13] was “completely blocks glucose reabsorption” and the route of excretion ([10]; ref Silverman [1974]) was “mainly excreted into the urine”.
In the case of `CCOc1ccc(Cc2cc([C@@H]3O[C@H](CO)[C@@H](O)[C@H](O)[C@H]3O)ccc2Cl)cc1` [dapagliflozin], the “Off rate of binding to hSGLT2” value (hSGLT2 [9]) is given as “very slow Off rate” and the free plasma concentration [11] is given as 25 nM.
For `Cc1ccc([C@@H]2O[C@H](CO)[C@@H](O)[C@H](O)[C@H]2O)cc1Cc1ccc(-c2ccc(F)cc2)s1` [Canagliflozin, canagliflozin], the “selectivity for hSGLT2 over hSGLT1” value (hSGLT2 over hSGLT1) is given as 414 fold.
